Laboratory results published in PMC6105804, “In Vitro and In Vivo Evaluation of APX001A/APX001 and Other Gwt1 Inhibitors against Cryptococcus” (Antimicrobial Agents and Chemotherapy, 2018).
Values after ≈ are worked out from the molar mass of the structure shown. Read-outs that look alike come from different tables or passages of the source.

Tests used:
C. albicans 90028 = test: Broth microdilution susceptibility testing (CLSI M27-A3); type: cell-based, Candida albicans; conditions: Candida albicans, 90028; read-out: MIC, C. albicans 90028
Method in brief: (§1)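 CLSI broth microdilution (M27-A3 yeasts, M38-A2 molds), final 2 to 0.002 µg/ml, 35 °C for 40-48 h (C. albicans, A. fumigatus) or 72 h (C. neoformans). MIC for yeasts at 50% growth reduction versus DMSO control. A. fumigatus endpoint is MEC, lowest concentration shortening hyphae.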

[1] = tested on: FLC-susceptible and FLC-nonsusceptible/resistant strains of C. neoformans and C. gattii; test: Broth microdilution, summary over the 18-strain Cryptococcus collection; type: cell-based, Cryptococcus neoformans and Cryptococcus gattii; conditions: 18 strains of C. neoformans and C. gattii; for MIC: read-out: Geometric mean MIC
Method in brief: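 CLSI M27-A3 broth microdilution was run with final drug concentrations of 2 to 0.002 μg/ml from DMSO dilutions, incubated at 35°C for 72 h for C. neoformans. MIC was the lowest concentration giving 50% growth reduction versus the no-drug control, read with a mirror.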

C. gattii = test: Broth microdilution susceptibility testing (CLSI M27-A3); type: cell-based; conditions: Cryptococcus gattii
Method in brief: as §1

C. neoformans [2] = test: as above; type: cell-based, Cryptococcus neoformans; conditions: Cryptococcus neoformans
Method in brief: as §1

A. fumigatus MYA3626 = test: Broth microdilution susceptibility testing for molds (CLSI M38-A2); type: cell-based; conditions: Aspergillus fumigatus, MYA3626; read-out: MIC or MEC for A. fumigatus MYA3626
Method in brief: as §1

C. neoformans [3] = tested on: C. neoformans; set-up: method as in PMID 23740727; conditions: 46 strains of C. neoformans, global study; cited from earlier work
C. neoformans H99 = test: Microtiter checkerboard synergy with FLC; type: cell-based, Cryptococcus neoformans; conditions: in combination with FLC, MIC read at 50% inhibition, synergy FICI < 0.5
Method: An important consideration for developing a new treatment for CM is the potential for inclusion in combination therapy. We evaluated the synergy of APX001A and APX2020 in combination with FLC using standard microtiter dilution techniques ([33]). […] Importantly, no antagonism was observed.
To establish the antimicrobial activity of the APX001A analogs, broth microdilution susceptibility testing was performed according to Clinical and Laboratory Standards Institute (CLSI) guidelines M27-A3 ([47]) for yeasts and M38-A2 for molds ([48]). APX001A and analogs were first diluted in DMSO to obtain intermediate dilutions. These were further diluted in microtiter plates to obtain a final concentration of 2 to 0.002 μg/ml. One microliter of DMSO was added to the no-drug control wells. The solutions were mixed on a plate shaker for 10 min, and the plates were incubated at 35°C for 40 to 48 h (C. albicans, A. fumigatus) and 72 h (C. neoformans). The minimum concentration that led to a 50% reduction in fungal growth compared to that for the control (determined with the aid of a reading mirror) was determined as the MIC for C. albicans and C. neoformans. The minimum concentration that led to the shortening of hyphae compared to the hyphal growth in DMSO control wells was determined as the minimum effective concentration (MEC) for A. fumigatus (as read for the echinocandins). […]

[4] = Single-dose mouse pharmacokinetics of prodrugs with or without ABT; type: in vivo; conditions: for AUC: male, CD-1, mouse, plasma, 26 mg/kg
Method: The area under the curve (AUC) was calculated from time zero to the time of the last measurable concentration. The active metabolite concentrations in plasma (APX001A, APX2039, APX2020, and APX2041) were determined by liquid chromatography-tandem mass spectrometry. PK parameters were determined using Phoenix WinNonlin (v7.0) software and a noncompartmental model.

[5] = set-up: method as in ref 23 = [23]; 23. Zhao Y , Lee M , Lee A , Paderu P , Park S , Perlin DS 2018 APX001 is effective against echinocandin and multi-drug resistant Candida isolates . Abstr 28th ECCMID , Madrid, Spain .; conditions: female CD-1 mice, cited from earlier work
PIGW protein = tested on: PIGW protein; set-up: method as in PMID 22143530; conditions: closest mammalian ortholog of fungal Gwt1; cited from earlier work
[6] = C. gattii isolate MYA-4093, read-out: MIC
[7] = C. gattii isolate MYA-4094, read-out: MIC
[8] = C. gattii isolate MYA-4560 (first listing, r17), read-out: MIC
[9] = C. gattii isolate MYA-4560 (second listing, r21), read-out: MIC
[10] = C. gattii isolate MYA-4561, read-out: MIC
[11] = C. gattii isolate MYA-4562, read-out: MIC
[12] = C. gattii isolate MYA-4563, read-out: MIC
[13] = C. gattii isolate MYA-4877, read-out: MIC
[14] = C. gattii isolate RSA-MW-3615 (FLC resistant), read-out: MIC
[15] = Table 1, 50% growth inhibition for FLC, caspofungin and APX compounds, 100% for AMB, read-out: MIC, C. gattii WM276
[16] = 72 h, Table 1, 50% growth inhibition for FLC, caspofungin and APX compounds, 100% for AMB, 72 h, read-out: MIC, C. neoformans H99
[17] = C. neoformans isolate 14116, read-out: MIC
[18] = C. neoformans isolate 76484, read-out: MIC
[19] = C. neoformans isolate DUMC 118.00 (FLC resistant), read-out: MIC
[20] = C. neoformans isolate DUMC 158.03 (FLC resistant), read-out: MIC
[21] = C. neoformans isolate MYA-4564, read-out: MIC
[22] = C. neoformans isolate MYA-4565, read-out: MIC
[23] = C. neoformans isolate MYA-4566, read-out: MIC
[24] = C. neoformans isolate MYA-4567, read-out: MIC
[25] = Table 2, C. neoformans isolate H99, read-out: MIC
[26] = 100-mg/kg ABT orally 2 h prior to APX001 i.p.

SMILES	MIC (C. albicans 90028) [µg/mL]	MIC90 [1] [µg/mL]	MIC [1] [µg/mL]	MIC (C. gattii; [6]) [µg/mL]	MIC (C. gattii; [7]) [µg/mL]	MIC (C. gattii; [8]) [µg/mL]	MIC (C. gattii; [9]) [µg/mL]	MIC (C. gattii; [10]) [µg/mL]	MIC (C. gattii; [11]) [µg/mL]	MIC (C. gattii; [12]) [µg/mL]	MIC (C. gattii; [13]) [µg/mL]	MIC (C. gattii; [14]) [µg/mL]	MIC (C. gattii; [15]) [µg/mL]	MIC (C. neoformans [2]; [16]) [µg/mL]	MIC (C. neoformans [2]; [17]) [µg/mL]	MIC (C. neoformans [2]; [18]) [µg/mL]	MIC (C. neoformans [2]; [19]) [µg/mL]	MIC (C. neoformans [2]; [20]) [µg/mL]	MIC (C. neoformans [2]; [21]) [µg/mL]	MIC (C. neoformans [2]; [22]) [µg/mL]	also measured
OC(Cn1cncn1)(Cn1cncn1)c1ccc(F)cc1F [FLC, fluconazole, reference compound]	0.5	64	3.56	2	2	1	1	4	2	4	4	64	1	2	4	4	64	32	4	1	MIC (C. neoformans [2]; [23]): 2 µg/mL; MIC (C. neoformans [2]; [24]): 1 µg/mL; MIC (C. neoformans [2]; [25]): 1 µg/mL; MIC (A. fumigatus MYA3626): > 16 µg/mL; MIC90 (C. neoformans [3]): 4 µg/mL (≈ 13.1 µM)
Nc1ncccc1-c1cc(Cc2ccc(COc3ccccn3)cc2)no1 [APX001A]	0.008	0.5	0.241	0.5	0.25	0.25	0.25	0.5	0.25	0.5	0.25	0.125	0.125	0.25	0.125	0.125	0.25	0.25	0.125	0.5	fractional inhibitory concentration index (FICI) (C. neoformans H99): 0.37; Ratio of AUC with ABT/AUC without ABT, i.p. dosing ([4]; 26 mg/kg prodrug): 5.6; Ratio of AUC with ABT/AUC without ABT, p.o. dosing ([4]; 26 mg/kg prodrug): 15.0; AUC ([4]; intraperitoneal, AUC of analyte after 26 mg/kg prodrug, 100 mg/kg ABT orally 2 h before, read-out: Avg AUC resulting from 26-mg/kg dose, i.p. dosing + ABT): 24300 ± 17700 ng·h/mL; AUC ([4]; ip, AUC of analyte after 26 mg/kg of the corresponding prodrug, male CD-1 mice, no ABT, read-out: Avg AUC resulting from 26-mg/kg dose, i.p. dosing): 4360 ± 110 ng·h/mL; AUC ([4]; po, AUC of analyte after 26 mg/kg prodrug, 100 mg/kg ABT orally 2 h before, read-out: Avg AUC resulting from 26-mg/kg dose, p.o. dosing + ABT): 41500 ± 8090 ng·h/mL; AUC ([4]; po, AUC of analyte in plasma after 26 mg/kg of the corresponding prodrug, male CD-1 mice, no ABT, read-out: Avg AUC resulting from 26-mg/kg dose, p.o. dosing): 2760 ± 230 ng·h/mL; fold increase in AUC with ABT [5, 26]: 9 fold; half-life of the active moiety with ABT [5, 26]: 8.8 h; half-life of the active moiety without ABT ([5]; APX001 i.p.): 1.3 h; sensitivity of PIGW protein to inhibition (PIGW protein): not sensitive to inhibition; MIC (C. neoformans [2]; [23]): 0.25 µg/mL; MIC (C. neoformans [2]; [24]): 0.25 µg/mL; MIC (C. neoformans [2]; [25]): 0.125 µg/mL; MIC (A. fumigatus MYA3626): 0.016 µg/mL
